Columns and labels:
[1] = molecular target: EGFR (UniProt P00533)
[2] = molecular target: EGFR (human) (UniProt P00533); conditions: nih3t3
EGFR (human), sequence (P00533 whole entry, looked up): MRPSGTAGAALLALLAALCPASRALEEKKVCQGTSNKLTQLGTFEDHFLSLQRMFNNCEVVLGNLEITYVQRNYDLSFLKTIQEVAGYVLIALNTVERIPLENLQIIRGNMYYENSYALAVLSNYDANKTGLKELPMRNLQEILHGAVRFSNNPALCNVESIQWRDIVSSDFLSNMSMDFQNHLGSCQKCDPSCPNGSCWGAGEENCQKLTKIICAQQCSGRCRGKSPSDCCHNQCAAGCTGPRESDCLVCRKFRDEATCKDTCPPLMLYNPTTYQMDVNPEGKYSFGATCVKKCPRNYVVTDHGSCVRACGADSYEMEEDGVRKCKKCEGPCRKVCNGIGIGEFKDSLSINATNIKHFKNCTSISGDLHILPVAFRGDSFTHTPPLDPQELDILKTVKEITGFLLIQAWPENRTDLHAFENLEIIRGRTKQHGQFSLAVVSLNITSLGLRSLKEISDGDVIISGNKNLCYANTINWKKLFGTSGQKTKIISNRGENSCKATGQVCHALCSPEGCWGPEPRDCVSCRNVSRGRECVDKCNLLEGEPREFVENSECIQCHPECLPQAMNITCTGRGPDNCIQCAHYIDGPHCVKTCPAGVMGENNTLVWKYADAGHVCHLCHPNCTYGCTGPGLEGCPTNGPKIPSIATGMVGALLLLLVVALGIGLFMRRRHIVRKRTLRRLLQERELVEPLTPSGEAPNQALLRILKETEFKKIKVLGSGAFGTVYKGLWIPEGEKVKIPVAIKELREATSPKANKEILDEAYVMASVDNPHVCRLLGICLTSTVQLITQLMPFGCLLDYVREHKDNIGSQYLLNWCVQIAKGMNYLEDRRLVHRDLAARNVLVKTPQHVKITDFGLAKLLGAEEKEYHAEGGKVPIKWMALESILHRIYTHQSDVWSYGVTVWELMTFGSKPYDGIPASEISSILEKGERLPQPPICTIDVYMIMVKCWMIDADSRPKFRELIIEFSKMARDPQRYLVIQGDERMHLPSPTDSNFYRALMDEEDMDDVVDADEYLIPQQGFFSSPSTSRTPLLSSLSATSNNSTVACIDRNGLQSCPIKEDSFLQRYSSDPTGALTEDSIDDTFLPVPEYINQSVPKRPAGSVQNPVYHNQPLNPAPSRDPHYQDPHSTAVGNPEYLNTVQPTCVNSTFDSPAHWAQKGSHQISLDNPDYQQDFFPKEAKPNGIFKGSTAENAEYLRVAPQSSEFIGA

EGFR, sequence (P00533 whole entry, looked up): as above

Structure (SMILES)	IC50 [1] [µM]	IC50 [2] [µM]
COc1ccc(-c2ccc3c(c2)NC(=O)/C3=C\c2[nH]c(C)c(CCCN(C)C)c2C)cc1	> 100	
Cc1[nH]c(/C=C2\C(=O)Nc3cccc(CCO)c32)c(C)c1CCCN(C)C	> 100	25.3
Cc1c(CCC(=O)O)c[nH]c1/C=C1\C(=O)Nc2ccccc21		> 50
COc1ccccc1-c1ccc2c(c1)NC(=O)/C2=C\c1[nH]c(C)c(CCCN2CCOCC2)c1C	> 100	
COc1ccc(-c2ccc3c(c2)NC(=O)/C3=C\c2[nH]c(C)c(CCCN3CCOCC3)c2C)cc1	> 100	
COc1cccc(-c2ccc3c(c2)NC(=O)/C3=C\c2[nH]c(C)c(CCCN3CCOCC3)c2C)c1	> 100	
Cc1c(CCC(=O)O)c[nH]c1/C=C1\C(=O)Nc2cc(Br)ccc21		> 50
Cc1ccc2c(c1)/C(=C/c1[nH]c(C)c(CCC(=O)O)c1C)C(=O)N2		> 50
Cc1[nH]c(/C=C2\C(=O)Nc3ccc(Br)cc32)c(C)c1CCCN(C)C	> 100	4.1
Cc1[nH]c(/C=C2\C(=O)Nc3cc(O)ccc32)c(C)c1CCC(=O)O		> 50
Cc1c(CCC(=O)O)c[nH]c1/C=C1\C(=O)Nc2ccc(Br)cc21		> 50
COc1ccc2c(c1)NC(=O)/C2=C\c1[nH]c(C)c(CCCN(C)C)c1C	> 100	
Cc1[nH]c(/C=C2\C(=O)Nc3ccccc32)c(C)c1CCCN(C)C	> 100	12.6
Cc1[nH]c(/C=C2\C(=O)Nc3ccc(S(=O)(=O)N4CCOCC4)cc32)c(C)c1CCCN(C)C	> 100	29.8
Cc1[nH]c(/C=C2\C(=O)Nc3cc(-c4ccccc4)ccc32)c(C)c1CCCN(C)C	> 100	4
Cc1[nH]c(/C=C2\C(=O)Nc3ccc(Cl)cc32)c(C)c1CCC(=O)O		> 50
Cc1[nH]c(/C=C2\C(=O)Nc3ccc(Br)cc32)c(C)c1CCC(=O)O		> 50
Cc1[nH]c(/C=C2\C(=O)Nc3ccc(Br)cc32)c(C)c1CCCN1CCOCC1	> 100	44.6
COc1ccc2c(c1)/C(=C/c1[nH]c(C)c(CCCN(C)C)c1C)C(=O)N2	> 100	

Structure (SMILES)	IC50 [1] [µM]	IC50 [2] [µM]
Cc1c(CCC(=O)O)c[nH]c1/C=C1\C(=O)Nc2cc(-c3ccccc3)ccc21		30.5
Cc1c(CCC(=O)O)c[nH]c1/C=C1\C(=O)Nc2ccc(I)cc21		> 50
Cc1[nH]c(/C=C2\C(=O)Nc3ccc(S(=O)(=O)NC(C)C)cc32)c(C)c1CCCN(C)C	> 100	
Cc1c(CCC(=O)O)c[nH]c1/C=C1\C(=O)Nc2cc(Cl)ccc21		> 50
Cc1[nH]c(/C=C2\C(=O)Nc3ccc(Cl)cc32)c(C)c1CCCN(C)C	> 100	7.49
Cc1c(CCC(=O)O)c[nH]c1/C=C1\C(=O)Nc2ccc(Cl)cc21		12
Cc1cccc2c1/C(=C/c1[nH]cc(CCC(=O)O)c1C)C(=O)N2		> 50
Cc1[nH]c(/C=C2\C(=O)Nc3cc(-c4ccccc4)ccc32)c(C)c1CCC(=O)O		32.7
Cc1[nH]c(/C=C2\C(=O)Nc3ccccc32)c(C)c1CCCN1CCOCC1	> 100	> 50
Cc1[nH]c(/C=C2\C(=O)Nc3ccc(I)cc32)c(C)c1CCC(=O)O		> 50
Cc1[nH]c(/C=C2\C(=O)Nc3cc(-c4ccccc4)ccc32)c(C)c1CCCN1CCOCC1	> 100	> 50
Cc1cccc2c1/C(=C/c1[nH]c(C)c(CCC(=O)O)c1C)C(=O)N2		> 50
Cc1ccc2c(c1)/C(=C/c1[nH]c(C)c(CCCN(C)C)c1C)C(=O)N2	> 100	25.4
Cc1cccc2c1/C(=C/c1[nH]c(C)c(CCCN(C)C)c1C)C(=O)N2	> 100	20.2
Cc1[nH]c(/C=C2\C(=O)Nc3ccc(S(=O)(=O)N(C)C)cc32)c(C)c1CCCN(C)C	> 100	11.2
Cc1[nH]c(/C=C2\C(=O)Nc3ccc(S(N)(=O)=O)cc32)c(C)c1CCCN(C)C	> 100	6.59
Cc1ccc2c(c1)/C(=C/c1[nH]cc(CCC(=O)O)c1C)C(=O)N2		> 50
Cc1[nH]c(/C=C2\C(=O)Nc3cc(Cl)ccc32)c(C)c1CCCN(C)C	86.6	25.4
